This is an account of results in article PMC6274180, “Investigating Glycol-Split-Heparin-Derived Inhibitors of Heparanase: A Study of Synthetic Trisaccharides” (Molecules, 2016).

This test addresses T1, heparanase (Homo sapiens, UniProt Q9Y251).
T1 construct: gene HPSE
T1 sequence (Q9Y251 36-109): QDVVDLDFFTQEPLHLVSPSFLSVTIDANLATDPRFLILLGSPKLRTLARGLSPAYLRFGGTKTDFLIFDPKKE
T1 sequence (Q9Y251 158-543): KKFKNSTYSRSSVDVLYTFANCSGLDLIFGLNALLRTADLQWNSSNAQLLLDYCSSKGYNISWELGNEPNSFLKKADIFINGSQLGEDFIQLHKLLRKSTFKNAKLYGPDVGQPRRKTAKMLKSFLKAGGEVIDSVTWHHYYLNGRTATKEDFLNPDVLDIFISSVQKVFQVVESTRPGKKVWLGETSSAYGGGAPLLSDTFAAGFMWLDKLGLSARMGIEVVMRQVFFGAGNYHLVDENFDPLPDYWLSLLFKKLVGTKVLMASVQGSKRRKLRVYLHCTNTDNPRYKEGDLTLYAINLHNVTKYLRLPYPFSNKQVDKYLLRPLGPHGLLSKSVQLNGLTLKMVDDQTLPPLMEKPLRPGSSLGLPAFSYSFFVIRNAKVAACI
Kind of test: in vitro colorimetric (WST-1) heparanase inhibition assay with fondaparinux as substrate. The format is biochemical. For orientation: Tetrazolium dyes change colour on reduction, which living cells bring about.

SMILES strings stand for the structures.

As to `CO[C@H]1[C@H](O)[C@@H](NS(=O)(=O)O)[C@@H](O[C@H]2[C@H](O)[C@@H](O)[C@H](O[C@H]3[C@H](O)[C@@H](NS(=O)(=O)O)[C@@H]4OC[C@H]3O4)O[C@@H]2C(=O)O)O[C@@H]1COS(=O)(=O)O` [compound 1], it took 39.9 µM to reach half-maximal inhibition (IC50).

On to `CO[C@H]1[C@H](O)[C@@H](NS(=O)(=O)O)[C@@H](O[C@@H](CO)[C@H](O[C@H](CO)O[C@H]2[C@H](O)[C@@H](NS(=O)(=O)O)[C@@H]3OC[C@H]2O3)C(=O)O)O[C@@H]1COS(=O)(=O)O` [compound 2, sodium(2S,3S)-4-hydroxy-2-((R)-2-hydroxy-1-(((1R,2S,3R,4R,5R)-3-hydroxy-4-(sulfonatoamino)-6,8-dioxabicyclo[3.2.1]octan-2-yl)oxy)ethoxy)-3-(((2R,3R,4R,5S,6R)-4-hydroxy-5-methoxy-3-(sulfonatoamino)-6-((sulfonatooxy)methyl)tetrahydro-2H-pyran-2-yl)oxy)butanoate], for which the IC50 (usually the concentration that gives 50% inhibition) was 2.65 µM.
